Assay results reported in patent publication US7704976B2, “Use of N-acetyl-D-glucosamine for preparing medicines for urogenital tract infection's treatment and prevention” (Third Military Medical University, Chinese People's …, priority 2002, dated 2010).

What was measured:
Proteus Mirabilis = test: Promoting wave test (bio-wave model on LB plate); format: cell-based; conditions: final concentration of 0.5% on LB plate, 37° C.
Text: 1. […] 1.3 Experimental Method:

[1] = in vivo
Text: II. Toxicological Test of the Compound of Formula (I), Including:
• 1. Acute toxicity test: including tests of oral administration, intravenous injection administration, and maximum limit amount for administration. • 2. Ames test; • 3. Micronucleus test of mouse bone marrow cell; • 4. Abnormality test of mouse sperm; • 5. Aberration test of mouse testis chromosome; • 6. Chronic lethal test; • 7. Subchronic toxicity (feed for 90 days) test; • 8. Traditional deformity-inducing test.

bacillus pyocyaneus = test: Test of effect for suppressing bacillus pyocyaneus transplantation on skin
Text: (§1) III. Tests of Effect for Suppressing Bacterial Transplantation
(§2) • 1. Test of effect for suppressing bacillus pyocyaneus transplantation on skin • 2. Test of suppressing bacteria

bacteria = test: Test of suppressing bacteria; format: cell-based
Text: as §1, §2

Gonorrhea = test: Clinic test, gonorrhea patients; format: in vivo, human; conditions: 2% aerosol topically sprayed to infected areas
Procedure: (§3) • 1. 170 patients suffering various venereal diseases were picked out, including 50 patients suffering gonorrhea, 50 patients suffering syphilis, 20 patients suffering condyloma acuminatum virus infection, 40 patients suffering trichomonas vaginalis infection, and 10 patients suffering candida albicans. 2% N-acetyl-D-glucosamine aerosol was topically sprayed to infected areas, and the effects of the compound of formula (I) for treatment of urogenital tract infections were determined by smearing and microscopic examination, and by isolation and culture.
(§4) Observation of therapeutical effect of N-acetyl-D-glucosamine for treatment of urogenital tract infections

Syphilis = test: Clinic test, syphilis patients; format: in vivo, human; conditions: 2% aerosol topically sprayed to infected areas
Procedure: as §3, §4

[2] = system: condyloma acuminatum virus infection; test: Clinic test, condyloma acuminatum virus infection patients; format: in vivo, human; conditions: 2% aerosol topically sprayed to infected areas
Procedure: as §3, §4

[3] = system: trichomonas vaginalis infection; test: Clinic test, trichomonas vaginalis infection patients; format: in vivo, human; conditions: 2% aerosol topically sprayed to infected areas
Procedure: as §3, §4

candida albicans = test: Clinic test, candida albicans patients; format: in vivo, human; conditions: 2% aerosol topically sprayed to infected areas
Procedure: as §3, §4

[4] = system: various urogenital tract infections

**Q.** With `CC(=O)N[C@H]1C(O)O[C@H](CO)[C@@H](O)[C@@H]1O` (stereo partly drawn) [N-acetyl-D-glucosamine] as the compound, how does the “promoting wave function (ring pattern versus control)” value (Proteus Mirabilis) read?
**A.** many fine waves on each ring emerged

**Q.** And the “dosage at which acute toxicosis reaction had not appeared” value [1]?
**A.** more than 2 g/kg

**Q.** What about the “transplantation and growth of bacillus pyocyaneus” value (bacillus pyocyaneus) of the same compound?
**A.** suppressed the transplantation and growth of bacillus pyocyaneus

**Q.** And the “bactericidal or bacteriostasis effect” value (bacteria)?
**A.** essentially exhibited no bactericidal or bacteriostasis effect

**Q.** And the “Effective rate (%)” value (Gonorrhea)?
**A.** 90%

**Q.** And the “Ineffective rate (%)” value (Gonorrhea)?
**A.** 10%

**Q.** What about the “Effective rate (%)” value (Syphilis) of the same compound?
**A.** 60%

**Q.** And the “Ineffective rate (%)” value (Syphilis)?
**A.** 40%

**Q.** And the “Effective rate (%)” value [2]?
**A.** 80%

**Q.** And the “Ineffective rate (%)” value [2]?
**A.** 20%

**Q.** And the “Effective rate (%)” value [3]?
**A.** 75%

**Q.** What about the “Ineffective rate (%)” value [3] of the same compound?
**A.** 25%

**Q.** What about the “Effective rate (%)” value (candida albicans) of the same compound?
**A.** 90%

**Q.** What about the “Ineffective rate (%)” value (candida albicans) of the same compound?
**A.** 10%

**Q.** What about the “effective rate for treatment of various urogenital tract infections” value [4] of the same compound?
**A.** 79%
